In PubChem BioAssay (NCI):
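Exposure lasted 48 hours, with cells grown in 96-well plates and compounds tested at five concentrations. TGI is the concentration that stops growth completely.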

Legend:
Assay in all cases: NCI anticancer screen, dose series, 48 h
[1] = test system: SK-OV-3 ovarian
[2] = test system: SK-MEL-5 melanoma
[3] = test system: KM12 colon
[4] = test system: LOX IMVI melanoma
[5] = test system: HL-60(TB) leukemia
[6] = test system: NCI-H460 lung
[7] = test system: HOP-62 NSCLC
[8] = test system: UACC-62 melanoma
[9] = test system: M14 melanoma
[10] = test system: K-562 leukemia

## Cc1ccc2c(c1)[nH]c1cc(C(F)(F)F)ccc1[p+]2=O (stereo not given)
[1]
  TGI: > 100 µM
[2]
  TGI: 34 µM
[3]
  TGI: > 100 µM
[4]
  TGI: > 100 µM
[5]
  TGI: 56.2 µM
[6]
  TGI: > 100 µM
[7]
  TGI: > 100 µM
[8]
  TGI: 54.9 µM
[9]
  TGI: > 100 µM
[10]
  TGI: 66.4 µM

## Cc1ccc2nc(Cl)c(/C=N/N3C(=O)/C(=C/c4ccccc4S)N=C3c3ccccc3)cc2c1
[1]
  TGI: > 100 µM
[2]
  TGI: > 100 µM
[3]
  TGI: > 100 µM
[4]
  TGI: > 100 µM
[5]
  TGI: 61.6 µM
[6]
  TGI: > 100 µM
[7]
  TGI: > 100 µM
[8]
  TGI: > 100 µM
[9]
  TGI: 79.4 µM
[10]
  TGI: 49 µM

## CC(=O)C1=C(C)NC2C=CC=CN12 (stereo not given)
[1]
  TGI: > 100 µM
[2]
  TGI: > 100 µM
[3]
  TGI: > 100 µM
[4]
  TGI: > 100 µM
[5]
  TGI: > 100 µM
[6]
  TGI: > 100 µM
[7]
  TGI: > 100 µM
[8]
  TGI: > 100 µM
[9]
  TGI: > 100 µM
[10]
  TGI: > 100 µM

## CCCCCC(=O)NC(=S)Nc1nn[nH]n1
[1]
  TGI: > 100 µM
[2]
  TGI: > 100 µM
[3]
  TGI: > 100 µM
[4]
  TGI: > 100 µM
[5]
  TGI: > 100 µM
[6]
  TGI: > 100 µM
[7]
  TGI: > 100 µM
[8]
  TGI: > 100 µM
[9]
  TGI: > 100 µM
[10]
  TGI: > 100 µM

## COc1ccc(O)cc1
[1]
  TGI: > 100 µM
[2]
  TGI: > 100 µM
[3]
  TGI: > 100 µM
[4]
  TGI: > 100 µM
[5]
  TGI: > 100 µM
[6]
  TGI: > 100 µM
[7]
  TGI: > 100 µM
[8]
  TGI: 87.1 µM
[9]
  TGI: > 100 µM
[10]
  TGI: > 100 µM

## CN(O)C(=O)c1cccc(Cl)c1
[1]
  TGI: > 100 µM
[2]
  TGI: > 100 µM
[3]
  TGI: > 100 µM
[4]
  TGI: > 100 µM
[5]
  TGI: > 100 µM
[6]
  TGI: > 100 µM
[7]
  TGI: > 100 µM
[8]
  TGI: > 100 µM
[9]
  TGI: > 100 µM
[10]
  TGI: > 100 µM

## O=c1oc2ccccc2c(Nc2ccc3c(c2)Oc2ccccc2O3)c1[N+](=O)[O-]
[1]
  TGI: 40.9 µM
[2]
  TGI: 45.3 µM
[3]
  TGI: > 100 µM
[4]
  TGI: > 100 µM
[5]
  TGI: > 100 µM
[6]
  TGI: > 100 µM
[7]
  TGI: > 100 µM
[8]
  TGI: 37.1 µM
[9]
  TGI: > 100 µM
[10]
  TGI: > 100 µM

## CCN1C(=O)C(=C/C=C/c2ccc([N+](=O)[O-])cc2)C(=O)N(CC)C1=S
[1]
  TGI: > 100 µM
[2]
  TGI: 42.8 µM
[3]
  TGI: 60.7 µM
[4]
  TGI: 33.2 µM
[5]
  TGI: > 100 µM
[6]
  TGI: > 100 µM
[7]
  TGI: 39.2 µM
[8]
  TGI: 34.7 µM
[9]
  TGI: > 100 µM
[10]
  TGI: 48.4 µM

## O=C1Nc2c(ccc(Cl)c2I)C1=O
[1]
  TGI: 48.3 µM
[2]
  TGI: 29.5 µM
[3]
  TGI: 65.6 µM
[4]
  TGI: 37 µM
[5]
  TGI: 48.1 µM
[6]
  TGI: 31.8 µM
[7]
  TGI: 48.3 µM
[8]
  TGI: 33.8 µM
[9]
  TGI: 29.4 µM
[10]
  TGI: 73.2 µM

## CC(=O)O[C@H]1C#C/C=C\C#CC[C@@H]2C(=O)N[C@@H]12
[1]
  TGI: > 100 µM
[2]
  TGI: > 100 µM
[3]
  TGI: > 100 µM
[4]
  TGI: > 50.2 µM
[5]
  TGI: 33.5 µM
[6]
  TGI: 37.6 µM
[7]
  TGI: > 72.6 µM
[8]
  TGI: > 100 µM
[9]
  TGI: > 100 µM
[10]
  TGI: > 100 µM

## N#C/C(=C\n1ccc(=O)[nH]c1=S)C(N)=O
[1]
  TGI: > 100 µM
[2]
  TGI: > 100 µM
[3]
  TGI: > 100 µM
[4]
  TGI: > 100 µM
[5]
  TGI: > 100 µM
[6]
  TGI: > 100 µM
[7]
  TGI: > 100 µM
[8]
  TGI: > 100 µM
[9]
  TGI: > 100 µM
[10]
  TGI: > 100 µM

## O=c1c2c([N+](=O)[O-])cccc2nc2[nH]c3ccccc3n12
[1]
  TGI: 24.6 µM
[2]
  TGI: > 75 µM
[3]
  TGI: > 75 µM
[4]
  TGI: > 75 µM
[5]
  TGI: > 75 µM
[6]
  TGI: > 75 µM
[7]
  TGI: > 75 µM
[8]
  TGI: > 75 µM
[9]
  TGI: > 75 µM
[10]
  TGI: > 75 µM

## CCC(C#N)NC(=O)NC(C#N)CC (stereo not given)
[1]
  TGI: > 100 µM
[2]
  TGI: > 100 µM
[3]
  TGI: > 100 µM
[4]
  TGI: > 100 µM
[5]
  TGI: > 100 µM
[6]
  TGI: > 100 µM
[7]
  TGI: > 100 µM
[8]
  TGI: > 100 µM
[9]
  TGI: > 100 µM
[10]
  TGI: > 100 µM

## NC1=NS(=O)(=O)Nc2nc(-c3ccc([N+](=O)[O-])cc3)[nH]c21
[1]
  TGI: > 100 µM
[2]
  TGI: > 100 µM
[3]
  TGI: > 100 µM
[4]
  TGI: > 100 µM
[5]
  TGI: > 100 µM
[6]
  TGI: > 100 µM
[7]
  TGI: > 100 µM
[8]
  TGI: > 100 µM
[9]
  TGI: > 100 µM
[10]
  TGI: > 100 µM

## C=C1C(=O)CC2C(=O)C(C)(O)CC/C=C(\C)C(=O)CC12 (stereo not given)
[1]
  TGI: > 100 µM
[2]
  TGI: 35.6 µM
[3]
  TGI: > 100 µM
[4]
  TGI: 35.4 µM
[5]
  TGI: 8.87 µM
[6]
  TGI: > 100 µM
[7]
  TGI: > 100 µM
[8]
  TGI: 91.8 µM
[9]
  TGI: 31 µM
[10]
  TGI: > 44.1 µM

## Nc1cccc(Nc2nc3ccccc3nc2NS(=O)(=O)c2ccccc2)c1
[1]
  TGI: > 100 µM
[2]
  TGI: 29.8 µM
[3]
  TGI: 41.7 µM
[4]
  TGI: 47.3 µM
[5]
  TGI: 46.6 µM
[6]
  TGI: 71.1 µM
[7]
  TGI: 96.2 µM
[8]
  TGI: 46.1 µM
[9]
  TGI: 71.8 µM
[10]
  TGI: 76.3 µM

## CCOC(=O)/C=C(/C(=O)OCC)n1ccc(N)nc1=O
[1]
  TGI: > 100 µM
[2]
  TGI: > 100 µM
[3]
  TGI: > 100 µM
[4]
  TGI: > 100 µM
[5]
  TGI: > 100 µM
[6]
  TGI: > 100 µM
[7]
  TGI: > 100 µM
[8]
  TGI: > 100 µM
[9]
  TGI: > 100 µM
[10]
  TGI: > 100 µM
